# Laboratory results published in patent publication US20100297225A1, “SUSTAINED-RELEASE PHARMACEUTICAL FORMULATION CONTAINING AN ANTIMUSCARINIC AGENT AND A WETTING AGENT AS WELL AS A PROCESS FOR THE PREPARATION THEREOF” (PHARMATHEN S.A., priority 2007, published 2010).
# Counter-ions that a name gives are not always drawn.
# How the values were obtained:
# [1] = Flowability and compressibility (Carr's Index); type: physicochemical
# Excerpt: The pharmaceutical composition is characterized by excellent pharmacotechnical properties, such as homogeneity, flowability and compressibility.
# [2] = X-RD analysis of crystalline form after storage; type: physicochemical; settings: 3 months storage, normal and accelerated conditions (40°C and 75% RH)
# Method: As shown in FIG. 1 by the X-RD analysis Tolterodine Tartrate is in crystalline form and all the recorded characteristic broad peaks (approximate 20 values=12.55, 16.40, 20.00, 21.20, 22.75, 23.80, 25.65, 27.45, 34.60 and 37.60) were unchanged after 3 months storage in both normal and accelerated conditions (40° C. and 75% RH). The crystal properties remain also unchanged after three months in the same conditions when the mixture is incorporated in a pharmaceutical composition with other excipients.
smiles,measurement,setting,value
"Cc1ccc(O)c([C@H](CCN(C(C)C)C(C)C)c2ccccc2)c1 [Tolterodine Tartrate, (R)—N,N-diisopropyl-3-(2-hydroxy-5-methylphenyl)-3-phenylpropylamine]",mean Carr's Index,[1],38.7%
same,X-RD characteristic peaks of crystalline form after storage,[2],unchanged
